# Measurements from patent US8440710B2, “HSL inhibitors useful in the treatment of diabetes” (Hoffmann-La Roche Inc., priority 2009, dated 2013).
# Molecular target: T1, human HSL (Homo sapiens, UniProt Q05469)
# T1 construct: generate a full length human HSL ORF with a 3′-His6 tag; made in house; host or cells: High 5 insect cells (baculovirus, pFast-BAC)
# T1 sequence (Q05469 1-1076): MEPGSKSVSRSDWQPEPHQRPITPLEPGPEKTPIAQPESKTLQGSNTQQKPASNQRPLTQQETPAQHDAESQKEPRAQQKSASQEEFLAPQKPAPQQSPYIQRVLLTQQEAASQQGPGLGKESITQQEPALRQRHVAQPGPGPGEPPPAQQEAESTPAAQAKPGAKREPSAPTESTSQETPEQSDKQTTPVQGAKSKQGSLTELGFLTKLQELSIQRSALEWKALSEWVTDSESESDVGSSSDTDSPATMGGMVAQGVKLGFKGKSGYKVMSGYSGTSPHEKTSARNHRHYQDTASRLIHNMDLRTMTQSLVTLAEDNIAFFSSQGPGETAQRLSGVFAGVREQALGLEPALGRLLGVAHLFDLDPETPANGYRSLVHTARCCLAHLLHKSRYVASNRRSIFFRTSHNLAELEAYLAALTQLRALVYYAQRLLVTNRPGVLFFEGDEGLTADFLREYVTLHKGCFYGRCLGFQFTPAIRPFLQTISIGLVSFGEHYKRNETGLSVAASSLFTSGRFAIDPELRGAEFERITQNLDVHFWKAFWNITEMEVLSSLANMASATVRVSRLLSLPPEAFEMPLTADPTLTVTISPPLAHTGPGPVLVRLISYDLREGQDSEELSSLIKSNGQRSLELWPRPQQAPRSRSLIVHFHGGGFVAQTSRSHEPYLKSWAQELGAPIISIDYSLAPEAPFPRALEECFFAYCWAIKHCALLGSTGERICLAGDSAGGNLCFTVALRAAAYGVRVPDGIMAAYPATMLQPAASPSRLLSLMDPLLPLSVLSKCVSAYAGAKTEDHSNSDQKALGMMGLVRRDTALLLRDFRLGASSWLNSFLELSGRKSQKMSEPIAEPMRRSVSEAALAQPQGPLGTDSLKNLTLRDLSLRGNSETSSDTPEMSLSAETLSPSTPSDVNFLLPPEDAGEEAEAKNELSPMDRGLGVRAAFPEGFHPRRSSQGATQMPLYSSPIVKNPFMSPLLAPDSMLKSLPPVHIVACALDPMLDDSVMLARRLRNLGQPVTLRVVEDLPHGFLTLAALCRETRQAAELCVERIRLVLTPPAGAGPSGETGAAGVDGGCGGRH
# Assay: Human Hormone-Sensitive Lipase (HSL) enzyme inhibition assay (colorimetric, DMPT substrate)
# Type: biochemical
# Details: human full length HSL-His6, 2,3-dimercapto-1-propanol tributyrate substrate, 37° C. 20 minutes, absorbance at 405 nm; read-out: HSL hum IC50
# Method in brief: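 Full-length human HSL with C-terminal His6, expressed in baculovirus-infected High 5 cells and Ni-NTA purified, was added (15 ug/ml stock) to 1.5 mM DMPT in 100 mM MOPS pH 7.2, 0.2 mg/ml fatty acid-free BSA containing compound. After 20 min at 37 °C, DTNB with SDS/Triton X-100 was added; A405 read after 15 min at RT.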
row,IC50,SMILES
1,8 nM,"CC(C)S(=O)(=O)C[C@]1(O)CC[C@]2(CCN(c3ccc(C(C)(C)C)cc3)C2=O)CC1 [Example 333, (5α,8α)-2-(4-tert-Butyl-phenyl)-8-hydroxy-8-(propane-2-sulfonylmethyl)-2-aza-spiro[4.5]decan-1-one]"
2,8 nM,"CC(C)(C)c1ccc(N2CC[C@]3(CC[C@@](O)(CS(=O)(=O)C(C)(C)C)CC3)C2=O)cc1 [Example 334, (5α,8α)-2-(4-tert-Butyl-phenyl)-8-hydroxy-8-(2-methyl-propane-2-sulfonylmethyl)-2-aza-spiro[4.5]decan-1-one]"
3,50 nM,"CCCS(=O)(=O)C[C@]1(O)CC[C@]2(CCN(c3ccc(OC(C)C)nc3)C2=O)CC1 [Example 335, (5α,8α)-8-Hydroxy-2-(6-isopropoxy-pyridin-3-yl)-8-(propane-1-sulfonylmethyl)-2-aza-spiro[4.5]decan-1-one]"
4,210 nM,"O=C1N(c2ccc3c(c2)OC(F)(F)O3)CC[C@]12CC[C@@](O)(C(F)(F)F)CC2 [Example 336, (5α,8α)-2-(2,2-Difluoro-benzo[1,3]dioxol-5-yl)-8-hydroxy-8-trifluoromethyl-2-aza-spiro[4.5]decan-1-one]"
5,80 nM,"CC[C@]1(O)CC[C@]2(CCN(c3ccc4c(c3)OC(F)(F)O4)C2=O)CC1 [Example 337, (5α,8α)-2-(2,2-Difluoro-benzo[1,3]dioxol-5-yl)-8-ethyl-8-hydroxy-2-aza-spiro[4.5]decan-1-one]"
6,250 nM,"CC(=O)[C@]1(O)CC[C@]2(CCN(c3ccc(OCC(F)(F)F)cc3)C2=O)CC1 [Example 338, (5α,8α)-8-Acetyl-8-hydroxy-2-[4-(2,2,2-trifluoro-ethoxy)-phenyl]-2-aza-spiro[4.5]decan-1-one]"
7,120 nM,"CC(C)(O)[C@]1(O)CC[C@]2(CCN(c3ccc(OCC(F)(F)F)cc3)C2=O)CC1 [Example 339, (5α,8α)-8-Hydroxy-8-(1-hydroxy-1-methyl-ethyl)-2-[4-(2,2,2-trifluoro-ethoxy)-phenyl]-2-aza-spiro[4.5]decan-1-one]"
8,40 nM,"O=C1N(c2ccc(C3CC(F)(F)C3)cc2)CC[C@]12CC[C@@](O)(C(F)(F)F)CC2 [Example 340, (5α,8α)-2-[4-(3,3-Difluoro-cyclobutyl)-phenyl]-8-hydroxy-8-trifluoromethyl-2-aza-spiro[4.5]decan-1-one]"
9,1350 nM,"O=C1N(c2ccc(C3CC(F)(F)C3)cc2)CC[C@]12CC[C@](O)(C(F)(F)F)CC2 [Example 341, (5α,8β)-2-[4-(3,3-Difluoro-cyclobutyl)-phenyl]-8-hydroxy-8-trifluoromethyl-2-aza-spiro[4.5]decan-1-one]"
10,30 nM,"COC[C@]1(O)CC[C@]2(CCN(c3ccc(C4CC(F)(F)C4)cc3)C2=O)CC1 [Example 342, (5α,8α)-2-[4-(3,3-Difluoro-cyclobutyl)-phenyl]-8-hydroxy-8-methoxymethyl-2-aza-spiro[4.5]decan-1-one]"
11,20 nM,"CCC[C@]1(O)CC[C@]2(CCN(c3ccc(C(C)(C)C)cc3)C2=O)CC1 [Example 343, (5α,8α)-2-(4-tert-Butyl-phenyl)-8-hydroxy-8-propyl-2-aza-spiro[4.5]decan-1-one]"
12,10 nM,"CC(C)[C@]1(O)CC[C@]2(CCN(c3ccc(C(C)(C)C)cc3)C2=O)CC1 [Example 344, (5α,8α)-2-(4-tert-Butyl-phenyl)-8-hydroxy-8-isopropyl-2-aza-spiro[4.5]decan-1-one]"
13,20 nM,"CC(C)(C)c1ccc(N2CC[C@]3(CC[C@@](O)(C(F)(F)F)CC3)C2=O)cc1 [Example 345, (5α,8α)-2-(4-tert-Butyl-phenyl)-8-hydroxy-8-trifluoromethyl-2-aza-spiro[4.5]decan-1-one]"
14,20 nM,"COC[C@]1(O)CC[C@]2(CCN(c3ccc(C(C)(C)C)cc3)C2=O)CC1 [Example 346, (5α,8α)-2-(4-tert-Butyl-phenyl)-8-hydroxy-8-methoxymethyl-2-aza-spiro[4.5]decan-1-one]"
